# Data published in ChEMBL document CHEMBL5036307, “Antimalarial Quinacrine and Chloroquine Lose Their Activity by Decreasing Cationic Amphiphilic Structure with a Slight Decrease in pH” (J Med Chem, 2021).
# Active and inactive are the calls of the source. No cut-off for these calls is given here.
# Assays:
# Saccharomyces cerevisiae [1] = assay: Antimicrobial activity against saccharomyces cerevisiae BY4741 assessed as inhibition of translation initiation by measuring polysme/monosome ratio at 1.5 mM at pH 7.5 incubated for 30 mins in presence of 2% glucose by polysome analysis (Rvb= 1.74); type: functional; details: 0.5 h
# Saccharomyces cerevisiae [2] = assay: Ratio of antimicrobial activity against Saccharomyces cerevisiae BY4741 at pH 6 to antimicrobial activity against Saccharomyces cerevisiae BY4741 at pH 8; type: functional
# [3] = Inhibition of actin polarization in Saccharomyces cerevisiae BY4741 at pH 7.5 incubated for 30 mins in presence of 8% glucose by rhodamine phalloidin staining based confocal microscopic analysis
# Saccharomyces cerevisiae [4] = assay: Inhibition of endocytosis in Saccharomyces cerevisiae BY4741 from plasma to vacuoles assessed as formation of discrete granules at 25 mM incubated for 2 hrs by FM4-64 staining based analysis; type: functional, organism-based
# [5] = Inhibition of actin polarization in Saccharomyces cerevisiae BY4741 at pH 7.5 incubated for 30 mins in presence of 2% glucose by rhodamine phalloidin staining based confocal microscopic analysis
# [6] = Inhibition HXT2 in Saccharomyces cerevisiae using 2DG as substrate assessed as inhibition of 2DG uptake at pH 6 preincubated for 10 min followed by substrate addition and measured after 10 min by glucose uptake-Glo assay
# [7] = Inhibition HXT2 in Saccharomyces cerevisiae using 2DG as substrate assessed as reduction in 2DG uptake at pH 7.5 preincubated for 10 min followed by substrate addition and measured after 10 min by glucose uptake-Glo assay
# Saccharomyces cerevisiae [8] = assay: Antimicrobial activity against Saccharomyces cerevisiae BY4741 assessed as inhibition of microbial growth at pH 7 in presence of glucose measured after 48 hrs by visual analysis; type: functional
# Saccharomyces cerevisiae [9] = assay: Inhibition HXT2 in Saccharomyces cerevisiae using 2DG as substrate assessed as reduction in 2DG uptake by measuring decrease in Vmax at 0.6 mM at pH 7.5 by Michaelis-Menten analysis (Rvb= 208 +/- 7 nmol/min)
# Saccharomyces cerevisiae [10] = assay: Inhibition HXT2 in Saccharomyces cerevisiae using 2DG as substrate assessed as reduction in 2DG uptake by measuring Km at 0.6 mM at pH 7.5 by Michaelis-Menten analysis (Rvb= 0.76 +/- 0.08 mM)
# Cell membrane [11] = assay: Induction of membrane disruption in Saccharomyces cerevisiae BY4741 assessed as cell lysis by measuring increase in extracellular ATP level at pH 7.5 in presence of 8% glucose incubated for 30 mins
# Saccharomyces cerevisiae [12] = assay: Antimicrobial activity against Saccharomyces cerevisiae BY4741 assessed as inhibition of microbial growth at pH 6 in presence of glucose measured after 48 hrs by visual analysis; type: functional
# [13] = system: Saccharomyces cerevisiae BY4741; assay: Inhibition of actin polarization in Saccharomyces cerevisiae BY4741 at pH 6 incubated for 30 mins in presence of 2% glucose by rhodamine phalloidin staining based confocal microscopic analysis
# Saccharomyces cerevisiae [14] = assay: Antimicrobial activity against saccharomyces cerevisiae BY4741 assessed as inhibition of translation initiation by measuring polysme/monosome ratio at 1.5 mM at pH 7.5 incubated for 30 mins in presence of 8% glucose by polysome analysis (Rvb= 1.94); type: functional; details: 0.5 h
# Saccharomyces cerevisiae [15] = assay: Inhibition HXT2 in Saccharomyces cerevisiae using 2DG as substrate assessed as reduction in 2DG uptake by measuring Km at 0.2 mM at pH 7.5 by Michaelis-Menten analysis (Rvb=0.76 +/- 0.08 mM)
# Cell membrane [16] = assay: Induction of membrane disruption in Saccharomyces cerevisiae BY4741 at 50 mM incubated for 2 hrs by FM4-64 staining based analysis; type: subcellular
# Saccharomyces cerevisiae [17] = assay: Antimicrobial activity against Saccharomyces cerevisiae BY4741 assessed as inhibition of microbial growth at pH 8 in presence of glucose measured after 48 hrs by visual analysis; type: functional
# Saccharomyces cerevisiae [18] = assay: Inhibition HXT2 in Saccharomyces cerevisiae using 2DG as substrate assessed as reduction in 2DG uptake by measuring decrease in Vmax at 0.2 mM at pH 7.5 by Michaelis-Menten analysis (Rvb= 208 +/- 7 nmol/min)
# Saccharomyces cerevisiae [19] = assay: Ratio of antimicrobial activity against Saccharomyces cerevisiae BY4741 at pH 7 to antimicrobial activity against Saccharomyces cerevisiae BY4741 at pH 8; type: functional
# Cell membrane [20] = assay: Induction of membrane disruption in Saccharomyces cerevisiae BY4741 assessed as cell lysis by measuring increase in extracellular ATP level at pH 7.5 in presence of 2% glucose incubated for 30 mins
# Saccharomyces cerevisiae [21] = assay: Antimicrobial activity against Saccharomyces cerevisiae BY4741 assessed as inhibition of microbial growth at 50 mM at pH 5 in presence of glucose measured after 48 hrs by visual analysis; type: functional, organism-based
# Saccharomyces cerevisiae [22] = assay: Inhibition HXT2 in Saccharomyces cerevisiae using 2DG as substrate assessed as reduction in 2DG uptake by measuring Km at 125 uM at pH 7.5 by Michaelis-Menten analysis (Rvb= 0.76 +/- 0.03 mM)
# Saccharomyces cerevisiae [23] = assay: Inhibition HXT2 in Saccharomyces cerevisiae using 2DG as substrate assessed as reduction in 2DG uptake by measuring decrease in Vmax at 75 uM at pH 7.5 by Michaelis-Menten analysis (Rvb= 211 +/- 9 nmol/min)
# Saccharomyces cerevisiae [24] = assay: Inhibition HXT2 in Saccharomyces cerevisiae using 2DG as substrate assessed as reduction in 2DG uptake by measuring Km at 75 uM at pH 7.5 by Michaelis-Menten analysis (Rvb= 0.76 +/- 0.03 mM)
# Saccharomyces cerevisiae [25] = assay: Inhibition HXT2 in Saccharomyces cerevisiae using 2DG as substrate assessed as reduction in 2DG uptake by measuring decrease in Vmax at 125 uM at pH 7.5 by Michaelis-Menten analysis (Rvb= 211 +/- 9 nmol/min)
# Saccharomyces cerevisiae [26] = assay: Antimicrobial activity against Saccharomyces cerevisiae BY4741 assessed as inhibition of microbial growth at 60 mM at pH 6 in presence of glucose measured after 48 hrs by visual analysis; type: functional, organism-based
smiles,measurement,setting,value
CCN(CC)CCCC(C)Nc1c2ccc(Cl)cc2nc2ccc(OC)cc12 (stereo unspecified) [QUINACRINE],Ratio,Saccharomyces cerevisiae [1],1.53
same,Ratio,Saccharomyces cerevisiae [2],600
same,IC50,[3],1600 µM
same,inhibition,Saccharomyces cerevisiae [4],Active
same,IC50,[5],1000 µM
same,IC50,[6],3490 µM
same,IC50,[7],370 µM
same,MIC,Saccharomyces cerevisiae [8],2.5 µM
same,Vmax,Saccharomyces cerevisiae [9],113 nmol/min
same,Km,Saccharomyces cerevisiae [10],750 µM
same,Activity,Cell membrane [11],37 mM
same,MIC,Saccharomyces cerevisiae [12],50000 µM
same,inhibition,[13],inactive
same,Ratio,Saccharomyces cerevisiae [14],1.69
same,Km,Saccharomyces cerevisiae [15],770 µM
same,Activity,Cell membrane [16],Active
same,MIC,Saccharomyces cerevisiae [17],83 µM
same,Vmax,Saccharomyces cerevisiae [18],158 nmol/min
same,Ratio,Saccharomyces cerevisiae [19],30
same,Activity,Cell membrane [20],21.6 mM
same,Activity,Saccharomyces cerevisiae [21],inactive
CN(C)CCCN1c2ccccc2Sc2ccc(Cl)cc21 [CHLORPROMAZINE],Ratio,Saccharomyces cerevisiae [2],16
same,Km,Saccharomyces cerevisiae [22],710 µM
same,IC50,[6],259 µM
same,IC50,[7],115 µM
same,MIC,Saccharomyces cerevisiae [8],31 µM
same,Vmax,Saccharomyces cerevisiae [23],126 nmol/min
same,MIC,Saccharomyces cerevisiae [12],250 µM
same,Km,Saccharomyces cerevisiae [24],630 µM
same,MIC,Saccharomyces cerevisiae [17],15 µM
same,Ratio,Saccharomyces cerevisiae [19],2
same,Vmax,Saccharomyces cerevisiae [25],63 nmol/min
CCN(CC)CCCC(C)Nc1ccnc2cc(Cl)ccc12 (stereo unspecified) [CHLOROQUINE],Activity,Saccharomyces cerevisiae [26],inactive
same,MIC,Saccharomyces cerevisiae [8],15000 µM
same,MIC,Saccharomyces cerevisiae [17],520 µM
same,Ratio,Saccharomyces cerevisiae [19],30
